Patent US20030119792A1, “Method of inhibiting the production and/or effects of intestinal pro-inflammatory cytokines, prostaglandins and others” (priority 2001, published 2003)
“Also recorded” adds a separate entry of the source. Marks after values point to notes of the source that are not given here.

What was measured:
[1] = test system: IL-8 production in HT-29 cells; assay: LPS-stimulated IL-8 production in HT-29 cell cultures; format: cell-based, human; settings: for effect on IL-8 basal production: no LPS
Procedure: The human colon adenocarcinoma cell line HT-29, obtained from the Cell Culture Unit of the University of Granada (Granada, Spain) (ECACC reference number: 91072201), is used as a model of intestinal epithelium to test the ability of the different compounds to inhibit the production/release of IL-8. Cells are grown in Dulbecco's modified Eagle's medium supplemented with 10% fetal bovine serum (Boehringer Mannheim, Mannheim, Germany), 2 mM L-glutamine, 50,000 u l^−1 penicillin/streptomycin and 2.5 mg ml^−1 amphotericin B, in a humidified 5% CO2 atmosphere at 37° C. Cells are seeded into 12-well plates and grown to confluence. […] After 20 h, supernatants are collected, centrifuiged to remove debris at 7,000 g for 10 min and stored at −80° C. for the determination of IL-8 levels by enzyme-linked immunosorbent assay (Biosource International, Nivilles, Belgium).

[2] = test system: IL-1β production in THP-1 cells; assay: LPS and PMA-stimulated IL-1β production in THP-1 cells; format: cell-based, human; settings: for effect on stimulated IL-1β production (in words): 10^−7 to 10^−4 M
Procedure: The human monocytic cell line THP-1 is obtained from the Cell Culture Unit of the University of Granada (Granada, Spain) (ECACC reference number: 88081201) and used to assay the effects of the different compounds on IL-1 production. These cells are cultured in RPMI 1640 (Life Technologies, Paisley, UK) supplemented with 10% fetal bovine serum (Life Technologies), 2 mM glutamine and 0.05 mM mercaptoethanol in a humidified 5% CO2 atmosphere at 37° C. Cells are seeded onto 24-well plates at a density of 2×10^6 cells ml^−1 and pre-incubated during 30 min with the different test compounds, at concentrations ranging from 10^−7 to 10^−4 M, and then stimulated with 1 μg ml^−1 LPS and 1 μM phorbol 12-myristate 13-acetate (PMA). After 20 h, plates are centrifuged at 1,000 g for 10 min and supematants are collected and stored at −80° C. for the determination of IL-1 levels by EIA using a kit system (Amersham Pharmacia Biotech, Buckinghamshire, UK).

[3] = test system: TNF-α production in U-937 cells; assay: LPS-stimulated TNF-α production in PMA-differentiated U-937 cells; format: cell-based, human; settings: for effect on TNF-α production (in words): differentiated U-937 cells, LPS 4 h, 10^−6 to 10^−4 M
Procedure: The cells are cultured in RPMI 1640 (Life Technologies) supplemented with 10% fetal bovine serum and 2 mM glutamine in a humidified 5% CO2 atmosphere at 37° C. Cell concentration is adjusted to 0.5×10^6 cells ml, and monocytic differentiation is induced by incubation with 20 ng ml^−1 PMA for 24 h. After that, cells are harvested, centrifuged at 200 g for 5 min and plated onto 48-well plates at 210^6 cells ml^−1, pre-incubated for 30 min with the test compounds at concentrations ranging from 10^−6 to 10^−4 M, and stimulated with 0.1 μg ml^−1 LPS. After 4 h, plates are centrifuged at 1,000 g for 10 min and supernatants are collected and stored at −80° C. for the quantification of the TNF-α released in the culture medium by EIA using a commercial kit (R&D, Minneapolis, Minn., USA).

TNBS-induced rat colitis = settings: cited from earlier work
[4] = test system: TNF-α production in mononuclear cells; assay: TNF-α production in mononuclear cells (FIG. 8); format: cell-based; settings: 10 uM
Text: FIG. 8. Effects of UR-12746-S in the production of TNF-α in mononuclear cells.

reactivated TNBS colitis = assay: Reactivated TNBS colitis in rats: macroscopic colonic damage; format: in vivo, rat
Procedure: (§1) Colitis is induced by the method originally described by Morris et al. (1989), with minor modifications. Female Wistar rats (180-220 g) obtained from the Laboratory Animal Service of the University of Granada (Granada, Spain) are randomly distributed in several experimental groups. Animals are housed in makrolon cages (3-4 rats per cage) and maintained in an air-conditioned animal room with a 12 h light-dark cycle, and they are provided with free access to tap water and food (Panlab A.04). Animals are fasted overnight and anaesthetized with halothane. Under anesthesia, animals received 10 mg of TNBS dissolved in 0.25 ml of 50% ethanol (v v^−1) by means of a Teflon cannula inserted 8 cm through the anus. During and after TNBS administration rats are kept in a head-down position until they recovered from anesthesia, and then returned to their cage. […] Two additional groups are also included for reference: a non colitic group receiving intracolonically 0.25 ml of phosphate buffer saline (pH=7.4) and another colitic group which received only the first dose of TNBS (control group without relapse); both groups are orally administered with vehicle.
(§2) Animals are sacrificed with an overdose of halothane, and the entire colon is removed. The colonic segments are placed on an ice-cold plate, cleaned of fat and mesentery, and blotted on filter paper. Each specimen is weighed and its length measured under a constant load (2 g). […] The colon is subsequently divided longitudinally in 3 pieces for biochemical determinations. […] MPO activity is measured according to the technique described by Krawisz et al. (1984); the results are expressed as MPO units per gram of wet tissue and one unit of MPO activity is defined as that degrading 1 μmol min^−1 of hydrogen peroxide at 25° C. Samples for the determination of TNF-α and IL-1 synthesis are immediately weighed, minced on an ice-cold plate and suspended in a tube with 10 mM sodium phosphate buffer, pH=7.4, 1:5 w v^−1. The tubes are placed in a shaking water bath at 37° C. for 20 min and centrifuged at 9000 g for 30 s at 4° C. The supernatants are frozen at −80° C. until assay and cytokines are quantified by enzyme-linked immunosorbent assay (Amersham Pharmacia Biotech). All biochemical measurements are completed within one week from the time of sample collection and are performed in duplicate.

[5] = test system: colonic myeloperoxidase (MPO) activity; assay: Reactivated TNBS colitis in rats: colonic MPO activity; format: in vivo, rat
Procedure: as §1
as §2, with “Samples for the determination of TNF-α and IL-1 synthesis are immediately weighed, minced on an ice-cold plate and suspended in a tube with 10 mM sodium phosphate buffer, pH=7.4, 1:5 w v^−1. The tubes are placed in a shaking water bath at 37° C. for 20 min and centrifuged at 9000 g for 30 s at 4° C.” left out, “All biochemical measurements are completed within one week from the time of sample collection and are performed in duplicate.” left out

colonic IL-1β levels = assay: Reactivated TNBS colitis in rats: colonic IL-1β levels; format: in vivo, rat; settings: FIG. 5
Procedure: (§3) Colitis is induced by the method originally described by Morris et al. (1989), with minor modifications. Female Wistar rats (180-220 g) obtained from the Laboratory Animal Service of the University of Granada (Granada, Spain) are randomly distributed in several experimental groups. Animals are housed in makrolon cages (3-4 rats per cage) and maintained in an air-conditioned animal room with a 12 h light-dark cycle, and they are provided with free access to tap water and food (Panlab A.04). Animals are fasted overnight and anaesthetized with halothane. Under anesthesia, animals received 10 mg of TNBS dissolved in 0.25 ml of 50% ethanol (v v^−1) by means of a Teflon cannula inserted 8 cm through the anus. […]
(§4) Animals are sacrificed with an overdose of halothane, and the entire colon is removed. […] Each specimen is weighed and its length measured under a constant load (2 g). […] MPO activity is measured according to the technique described by Krawisz et al. (1984); the results are expressed as MPO units per gram of wet tissue and one unit of MPO activity is defined as that degrading 1 μmol min^−1 of hydrogen peroxide at 25° C. […] The supernatants are frozen at −80° C. until assay and cytokines are quantified by enzyme-linked immunosorbent assay (Amersham Pharmacia Biotech). […]

colonic TNF-α levels = assay: Reactivated TNBS colitis in rats: colonic TNF-α levels; format: in vivo, rat; settings: FIG. 6
Procedure: as §3, §4

[6] = test system: HT-29, THP-1 and U-937 cells; settings: any assayed concentration, any cell types used
Procedure: Test compounds are prepared at 600 μM stock solution in PBS and further working dilutions are performed in culture medium. Percentage inhibition of cytokine production is calculated for every drug concentration.
The test compounds are prepared at 600 μM stock solution in PBS and further working dilutions are performed in culture medium. Percentage inhibition of cytokine production is calculated for every drug concentration.

[7] = 25 mg kg^−1 oral daily, 3 wk (after second TNBS)
[8] = 25 mg kg^−1 oral daily, 4 wk (after second TNBS)
[9] = 50 mg kg^−1 oral daily, 3 wk (after second TNBS)
[10] = 50 mg kg^−1 oral daily, 4 wk (after second TNBS)
[11] = two weeks after the initial colonic challenge

In the case of `Nc1ccc(O)c(C(=O)O)c1` [5-ASA, 5-aminosalicylic acid], the inhibition at 1 µM ([1]; Homo sapiens, LPS, achieved at 10^−6 M, not higher up to 10^−4 M, read-out: maximum inhibitory effect on LPS-stimulated IL-8 production) is reported as 30 to 40%, the “effect on IL-8 basal production” value [1] is reported as “no significant effect” and the “effect on stimulated IL-1β production (in words)” value [2] is reported as “only a weak effect; also recorded: weak inhibitory activity”. The “inhibition of stimulated IL-1β production” value ([2]; the different concentrations assayed) was 10-20% and the “effect on TNF-α production (in words)” value [3] was “devoid of any significant effect; also recorded: inactive”.

For `Cc1nc2cnccc2n1CC1CCN(C(=O)C=C(c2ccccc2)c2ccc(/N=N\c3ccc(O)c(C(=O)O)c3)cc2)CC1` [UR-12746 free acid, (Z)-2-hydroxy-5-[[4-[3-[4-[(2-methyl-1H-imidazo[4,5-c]pyridin-1-yl)methyl]-1-piperidinyl]-3-oxo-1-phenyl-1-propenyl]phenyl]azo] benzoic acid], the IL-1β production (TNBS-induced rat colitis; 50-100 mg/kg, 4 week time span) is listed as “reduce IL-1β production”, the “Platelet Activating Factor (PAF) activity” value (TNBS-induced rat colitis; 50-100 mg/kg, 4 week time span) is listed as “inhibit Platelet Activating Factor (PAF) activity” and the “colonic myeloperoxidase (MPO) activity” value (TNBS-induced rat colitis; 50-100 mg/kg, 4 week time span) is listed as “reduce colonic myeloperoxidase (MPO) activity”. For the same compound, the LTB4 production (TNBS-induced rat colitis; only at 100 mg/kg and only after 3 and 4 weeks of administration) was “reduce LTB4 production” and the colonic damage (TNBS-induced rat colitis; only at the 100 mg/kg dosage) was “significant reduction in colonic damage”.

For `Cc1nc2cnccc2n1CC1CCN(C(=O)C=C(c2ccccc2)c2ccc(/N=N\c3ccc(O)c(C(=O)[O-])c3)cc2)CC1.[Na+]` [UR-12746-S, (Z)-2-hydroxy-5-[[4-[3-[4-[(2-methyl-1H-imidazo[4,5-c]pyridin-1-yl)methyl]-1-piperidinyl] -3-oxo-1-phenyl-1-propenyl]phenyl]azo] benzoic acid sodium salt], the “potency in inhibiting TNF-α production compared to the individual components, a combination of the components and sulfasalazine” value ([3]; U-937 cells, FIG. 7) was “more potent”, the “inhibition of TNF-α production compared with UR-12715 or a combination of UR-12715 and 5-ASA” value [4] was “to a greater extent” and the “colonic weight/length ratio, mean ± s.e.mean” value (reactivated TNBS colitis; 25 mg kg^−1 oral daily, 1 wk) was 146.6 ± 8.1 mg/cm. For the same compound, the “damage score (0-10), median (range)” value (reactivated TNBS colitis; 25 mg kg^−1 oral daily, 1 wk) was 5.5 (4-6), the “colonic weight/length ratio, mean ± s.e.mean” value (reactivated TNBS colitis; 25 mg kg^−1 oral daily, 2 wk) was 143.6 ± 4.9 mg/cm and the “damage score (0-10), median (range)” value (reactivated TNBS colitis; 25 mg kg^−1 oral daily, 2 wk) was 5 (4-5). The “colonic weight/length ratio, mean ± s.e.mean” value (reactivated TNBS colitis; [7]) was 150.5 ± 4.3 mg/cm, the “damage score (0-10), median (range)” value (reactivated TNBS colitis; [7]) was 5 (4-6) and the “colonic weight/length ratio, mean ± s.e.mean” value (reactivated TNBS colitis; [8]) was 143.2 mg/cm. For the same compound, the “damage score (0-10), median (range)” value (reactivated TNBS colitis; [8]) was 5 (2-6), the “colonic weight/length ratio, mean ± s.e.mean” value (reactivated TNBS colitis; 50 mg kg^−1 oral daily, 1 wk) was 137.0 ± 8.4 mg/cm and the “damage score (0-10), median (range)” value (reactivated TNBS colitis; 50 mg kg^−1 oral daily, 1 wk) was 4.5 (4-6). The “colonic weight/length ratio, mean ± s.e.mean” value (reactivated TNBS colitis; 50 mg kg^−1 oral daily, 2 wk) was 120.0 ± 5.9 mg/cm, the “damage score (0-10), median (range)” value (reactivated TNBS colitis; 50 mg kg^−1 oral daily, 2 wk) was 4 (3-5) and the “colonic weight/length ratio, mean ± s.e.mean” value (reactivated TNBS colitis; [9]) was 142.3 ± 3.1 mg/cm. The “damage score (0-10), median (range)” value (reactivated TNBS colitis; [9]) was 4 (3-5)*, the “colonic weight/length ratio, mean ± s.e.mean” value (reactivated TNBS colitis; [10]) was 110.8 mg/cm and the “damage score (0-10), median (range)” value (reactivated TNBS colitis; [10]) was 3 (2-4)*. For the same compound, the “colonic macroscopic damage score and colonic weight/length ratio after reactivation, compared with control colitic animals without relapse” value (reactivated TNBS colitis; after second TNBS dose) was “no statistical differences”, the “colonic MPO activity after colitis relapse” value ([5]; 25 and 50 mg kg^−1, after second TNBS, FIG. 4) was “prevent the increased activity” and the “colonic MPO activity” value ([5]; 25 and 50 mg kg^−1, first two weeks after the initial TNBS, FIG. 4) was “reduction in colonic MPO activity”. For the same compound, the “effect in reducing MPO activity in comparison with sulphasalazine” value ([5]; same doses, same experimental conditions) was “higher effect”, the “colonic IL-1β levels after second administration of TNBS” value (colonic IL-1β levels; after second TNBS) was “effectively prevents the increase in IL-1β levels” and the “colonic IL-1β levels” value (colonic IL-1β levels; [11]) was “decrease colonic IL-1β levels significantly”. The “colonic TNF-α levels after second administration of TNBS” value (colonic TNF-α levels; 50 mg kg^−1, after second TNBS) was “significantly reduced” and the “colonic TNF-α levels” value (colonic TNF-α levels; [11]) was “without showing any significant effect”.

With `Cc1nc2cnccc2n1CC1CCN(C(=O)C=C(c2ccccc2)c2ccc(N=Nc3ccc(O)c(C(=O)O)c3)cc2)CC1` [trans-1-[[1-[3-[4-(4-hydroxy-3-carboxyphenylazo)phenyl]-3-phenylpropenoyl]-4-piperidyl]methyl]-1H-2-methylimidazole [4,5-c] pyridine] the “viability (trypan blue exclusion)” value [6] was “higher than 95%”.

For “(Z)-1-[4-(3-aminophenyl)-1-oxo-3-phenyl-2-propenyl]-4-[(2-methyl-lH-imidazo[4,5-c]pyridin-1-yl)methyl] piperidine [UR-12715]”, the “effect on IL-8 basal production” value [1] was “no significant effect”, the “effect on stimulated IL-1β production (in words)” value [2] was “inhibited; also recorded: inhibits the stimulated cytokine production in a concentration-dependent way” and the “effect on TNF-α production (in words)” value [3] was “inhibited; also recorded: concentration-dependent inhibitory effect”.
